What was measured:
DLD-1 cells = test: Cell growth inhibition (Cell Counting Kit 8, Wst-8), 96 h exposure; format: cell-based; conditions: Homo sapiens, DLD-1 colon cancer cells
Procedure: (§1) The inhibitory efficacy of bis(arylmethylidene)-acetones on the development and growth of malignant tumor cells was examined. Curcumin and bis(arylmethylidene)-acetone compounds were dissolved in DMSO to obtain 50 mM compound solutions for storage. Sixteen human cancer cell lines (HCT116, DLD-1, SW620. LK87, PC3, MCF7, PK9, HuCCT-1, SH10TC, GCIY, G361, 8505c, HepG2, A431, ACHN, OVK18) were obtained from the Medical Cellular Resources Center of the Institute of Development, Aging, and Cancer at Tohoku University, Japan. These cells were cultured at 37° C. under 5% CO2 conditions using as a culture medium RPMI1640 (Sigma Aldrich) supplemented with 10% fetal bovine serum and kanamycin (Wako Pure Chemical Industries: final concentration, […]).
(§2) Three human colon-cancer cell lines (DLD-1, HCT116, SW620) were used in screening for cell growth inhibitory efficacy. The test compounds (bis(arylmethylidene)-acetones) were added to the culture media at the target concentrations, and exposure to the compounds was then continued for 96 hours in order to investigate not only acute cell damages but also effects on the cells, involving intracellular metabolic responses and others. The cell growth inhibitory efficacy was then evaluated with Cell Counting Kit 8 (Wst-8 Test, Dojindo Laboratories, Japan). In this analysis method, tetrazolium salt Wst-8 is degraded by reduced form nicotinamide adenine dinucleotide (nicotinamide adenine dinucleotide H; NADH). The activity of NADH is maintained only inside viable cells, and Wst-8 becomes colored upon degradation. The optical absorbance at 450 nm is measured, whereby the number of viable cells can be indirectly estimated.
(§3) Each cell line was placed on a 96-well microtiter plate at a cell density of 2500 to 5000 cells/100 μL/well in accordance with the growth rate of the cell line. After cell cultivation for 24 hours, […] medium containing each compound was added. The final concentration of each test compound is 0, 0.1, 0.25, 0.5, 1, 2.5, 5, 10, 25, 50, and 100 μM (11 levels). The maximum final concentration of DMSO used as a solvent was 1%. After culturing for 96 hours, the medium was aspirated away, followed by washing with PBS. Next, 100 μL of a medium containing a solution of Cell Counting Kit 8 at 1/10 (v/v) was added. Culturing was then continued for one hour. Thereafter, each optical absorbance at 450 nm (620 nm background) was measured with an MPR-A4i microplate reader (Tosoh, Japan). A curve of the inhibition of cell growth was constructed using the measured optical absorbances.

HCT116 cells = test: as above; format: cell-based; conditions: Homo sapiens, HCT-116, HCT116 colon cancer cells
Procedure: as §1, §2, §3

SW620 cells = test: as above; format: cell-based; conditions: Homo sapiens, SW-620, SW620 colon cancer cells
Procedure: as §1, §2, §3

colon-cancer cells = test: Growth inhibition compared with anti-cancer agents 5-FU, CPT11, CDDP (FIG. 6); format: cell-based, human
Procedure: as §1, §3
Stored solutions of three anti-cancer agents: 5-FU, CDDP, and CPT11, prepared beforehand (1 mM), were suitably diluted prior to use, and also added to culture media.

[1] = test system: cell lines derived from stomach, lung, breast, ovarian, prostate, pancreatic, bile duct, thyroid cancer and melanoma; test: Growth inhibition compared with 5-FU, CPT11, CDDP in cell lines of other cancers (FIG. 6); format: cell-based, human; conditions: cell lines from a variety of other cancers
Procedure: as §1
as §3, with “After culturing for 96 hours, the medium was aspirated away, followed by washing with PBS. Next, 100 μL of a medium containing a solution of Cell Counting Kit 8 at 1/10 (v/v) was added. Culturing was then continued for one hour.” left out, “absorbances. […]” for “absorbances.”

[2] = test system: A431, ACHN, and HepG2 cells; test: Growth inhibition compared with conventional anti-cancer agents (FIG. 6); format: cell-based, human
Procedure: as §1
as §3, with “After culturing for 96 hours, the medium was aspirated away, followed by washing with PBS. Next, 100 μL of a medium containing a solution of Cell Counting Kit 8 at 1/10 (v/v) was added. Culturing was then continued for one hour.” left out, “absorbances. […]” for “absorbances.”

β-catenin = test: Western blot of β-catenin degrading activity; format: cell-based, human; conditions: FIG. 9
Procedure: Western-blot analysis was used to investigate effects on the expression of oncogene products, ErbB2, c-Myc, and Cyclin D1, whose activity is enhanced in a variety of cancer cells, and to investigate the activity of degrading β-catenin, which plays an important role in the initial stages of carcinogenesis to the formation and development of tumors.
(§4) Western-blot analysis was performed in the following manner:
(§5) After HCT116 cells were treated with each test compound, plate-adhered cells were recovered along with cells suspended in supernatants, centrifuged, and pelleted. The cells were then lysed with a lysis solution (40 mM Tris-HCl, 1% Triton X-100, 2 mM MgCl2) supplemented with 200-μM phenylmethanesulfonyl fluoride (PMSF), 500-μM benzamidine, and 1-μg/mL leupeptin. After the mixture was allowed to stand on ice for 30 minutes, it was centrifuged for 10 minutes at 4° C. and 10000×g, and supernatants were recovered. To the resultant supernatant was added equimolarly 2× sample buffer (0.1 M Tris-HCl (pH 6.8), 4% SDS, 20% glycerol, and 12% β-mercaptoethanol), and the mixture was shaken for 3 minutes at 4° C., then heated to 95° C. for 4 minutes, and then stored at −20° C. until use. The cell lysates were phoresed on 8% SDS-PAGE, transferred to a Hybond-P membrane (Amersham Biosciences), and made to react with various monoclonal antibodies described below.
(§6) Monoclonal antibodies: anti-actin antibody (A2066, Sigma Aldrich), anti-β-catenin antibody (6101 53, BD-transduction Laboratories), anti-p53 antibody (FL393: sc-6243HRP), anti-cyclin D1 antibody (M-20: sc-718), anti-c-Myc antibody (9E10: sc-40), anti-k-Ras-2B antibody (C-19: sc-521), and anti-c-ErbB2 antibody (A0485, DAKO Cytomation).

p53 = test: Western blot of p53 gene product expression; format: cell-based, human; conditions: FIG. 11
Procedure: as §4, §5, §6
Curcumin is known to have activity in degrading p53 gene products. Degradation, genetic expression reduction, instability, or other deficiencies of the tumor suppressor gene p53 gene products, result in disadvantageous conditions as concerns cell malignancy and tendency to become cancerous.

[3] = test system: primary cultured hepatic cells (hNHeps); test: Toxicity test on normal cells; format: cell-based; conditions: FIG. 13
C57BL/6J mice = test: In vivo toxicity, mixed feed in high-fat diet; set-up: species or system mouse; conditions: oral, 0.1% (w/w) in high-fat diet HFD35, 5 mg/day, more than 120 days
Procedure: The synthetic compounds of the present invention are derived from curcumin, which is originally a food item. […] As a further test for in vivo toxicity, inbred C57BL/6J mice received daily an oral intake of 5 g of mixed feed (test compound dose: 5 mg/day) wherein each test compound was admixed at 0.1% (weight/weight) with a high-fat diet (HFD35, CLEA Japan).

Apc580D mice = test: Survival in familial adenomatous polyposis mouse model; format: in vivo
Excerpt: Familial adenomatous polyposis (FAP) is the most appropriate model for considering the multistage process of carcinogenesis in colon cancer. The APC gene is a causative gene in this illness. This gene is a tumor suppressor gene and is linked to the degradation of the β-catenin gene product. The FAP mouse model Aoc580D (Apc580D/+mice, wherein a mutation was introduced into the mouse Apc gene by homologous genetic recombination) is heterozygous for a genetic mutation in which codon 580 of the APC gene is a stop codon (i.e., the Apc gene product is truncated at codon 580). These mice present hundreds of polyps in the gastrointestinal tract in the same manner as human FAP. […] Reference: Shibata H. et al., Science, 278, pp. 120-123 “Rapid colorectal adenoma formation initiated by conditional targeting of the Apc gene,” 1997.
Analysis was performed on therapeutic models (in which administration was initiated around the age of 8 weeks, when polyposis had already been observed) and prophylactic models (in which administration was initiated around the age of 4 weeks, when polyposis had not been observed) of carcinogenesis in the colon. Apc580D mice (2 animals) given daily an oral intake of HFD35 alone at a dose of 5 g were used as a control.

With `O=C(/C=C/c1cc(O)cc(O)c1)/C=C/c1cc(O)cc(O)c1` (hydrate or solvate) [GO-Y038, (1E,4E)-1,5-bis-(3,5-dihydroxyphenyl)penta-1,4-dien-3-one] the melting point was 298 to 300 °C (dec.).

`COc1cc(Br)cc(/C=C/C(=O)/C=C/c2cc(Br)cc(OC)c2)c1` [GO-033, (1E,4E)-1,5-bis-(3-bromo-5-methoxyphenyl)penta-1,4-dien-3-one] gave a melting point of 181 to 183 °C.

In the case of `O=C(/C=C/c1ccc2ccccc2c1)/C=C/c1ccc2ccccc2c1` [GO-Y011, (1E,4E)-1,5-dinaphthalen-2-yl-penta-1,4-dien-3-one], the melting point is reported as 244 to 246 °C.

For `COc1cc(/C=C/C(=O)/C=C/c2cc(OC)c(OC)c(OC)c2)cc(OC)c1OC` [GO-Y016, (1E,4E)-1,5-bis-(3,4,5-trimethoxyphenyl)penta-1,4-dien-3-one], the IC50 (DLD-1 cells) was 0.25 µM, the IC50 (HCT116 cells) was 0.25 µM and the IC50 (SW620 cells) was 0.2 µM. The “growth inhibitory activity relative to 5-FU, CPT11 and CDDP” value (colon-cancer cells) was “much stronger”, the “anti-cancer activity relative to 5-FU, CPT11, and CDDP” value [1] was “strong anti-cancer activity” and the “effect relative to conventional anti-cancer agents” value [2] was “do not exert biological effects surpassing conventional anti-cancer agents”. The “β-catenin-degrading activity compared with BDMPP” value (β-catenin) was “not”.

Work on `COc1ccc(/C=C/C(=O)/C=C/c2ccc(OC)c(O)c2)cc1O` [GO-Y023, (1E,4E)-1,5-bis-(3-hydroxy-4-methoxyphenyl)penta-1,4-dien-3-one] yielded a melting point of 195 to 197 °C.

Work on `COc1cc(/C=C/C(=O)/C=C/c2cc(OC)c(O)c(OC)c2)cc(OC)c1O` [GO-Y026, (1E,4E)-1,5-bis-(4-hydroxy-3,5-dimethoxyphenyl)penta-1,4-dien-3-one] yielded a melting point of 166 to 168 °C.

Work on `COCOc1c(OC)cc(/C=C/C(=O)/C=C/c2cc(OC)c(OCOC)c(OC)c2)cc1OC` [GO-Y031, (1E,4E)-1,5-bis-(3,5-dimethoxy-4-methoxymethoxyphenyl)penta-1,4-dien-3-one] yielded an IC50 (DLD-1 cells) of 0.25 µM, an IC50 (HCT116 cells) of 0.25 µM and an IC50 (SW620 cells) of 0.5 µM. The “growth inhibitory activity relative to 5-FU, CPT11 and CDDP” value (colon-cancer cells) was “much stronger”, the “anti-cancer activity relative to 5-FU, CPT11, and CDDP” value [1] was “strong anti-cancer activity” and the “effect relative to conventional anti-cancer agents” value [2] was “do not exert biological effects surpassing conventional anti-cancer agents”. For the same molecule, the “concentration at which β-catenin degrading activity is displayed” value (β-catenin) was 1 µM, the “β-catenin-degrading activity compared with BDMPP” value (β-catenin) was “equal to or greater than that of BDMPP” and the “expression of p53 after 30 hours” value (p53) was “enhanced expression of p53”. For the same molecule, the “transient drop in expression of p53 6 to 12 hours after administration” value (p53) was “not seen”, the “cytotoxicity to normal cells” value [3] was “non-cytotoxic” and the “growth inhibition on normal cells” value [3] was “no growth inhibition was observed”. For the same molecule, the “bodily abnormalities including weight loss” value (C57BL/6J mice) was “No bodily abnormalities, including weight loss, were observed”, the “average survival, anti-carcinogenically prophylactic model (still alive)” value (Apc580D mice; oral 5 mg/day in HFD35, started around 4 weeks of age) was no less than 110.0 days and the “survival time, therapeutic model” value (Apc580D mice; oral 5 mg/day in HFD35, started around 8 weeks of age, average where several mice) was 148.0 days.

`COCCOCOc1c(OC)cc(/C=C/C(=O)/C=C/c2cc(OC)c(OCOCCOC)c(OC)c2)cc1OC` [GO-Y039, (1E,4E)-1,5-bis-(3,5-dimethoxy-4-methoxyethoxymethoxyphenyl)penta-1,4-dien-3-one] showed a melting point of 61 to 63 °C.

`COc1cc(/C=C/C(=O)/C=C/c2cc(OC)c(OCCO)c(OC)c2)cc(OC)c1OCCO` [GO-Y044, (1E,4E)-1,5-bis-[4-(2-hydroxyethoxy)-3,5-dimethoxyphenyl]penta-1,4-dien-3-one] gave a melting point of 133 to 135 °C.

With `C#CCOc1c(OC)cc(/C=C/C(=O)/C=C/c2cc(OC)c(OCC#C)c(OC)c2)cc1OC` [GO-Y048, (1E,4E)-1,5-bis-(3,5-dimethoxy-4-prop-2-ynyloxyphenyl)penta-1,4-dien-3-one] the melting point was 162 to 164 °C.

Work on `C#CCOc1c(OC)cc(/C=C/C(=O)/C=C/c2cc(OC)c(OC)c(OC)c2)cc1OC` [GO-Y060, (1E,4E)-1-(3,5-dimethoxy-4-prop-2-ynyloxyphenyl)-5-(3,4,5-trimethoxyphenyl)penta-1,4-dien-3-one] yielded a melting point of 118 to 120 °C.

Molecule `COc1cc(/C=C/C(=O)/C=C/c2cc(OC)c(OCCN=[N+]=[N-])c(OC)c2)cc(OC)c1OCCN=[N+]=[N-]` [GO-Y065, (1E,4E)-1,5-bis-[4-(2-azidoethoxy)-3,5-dimethoxyphenyl]penta-1,4-dien-3-one] has a melting point of 107 to 109 °C.

Source: US8178727B2, “Bis(arylmethylidene)acetone compound, anti-cancer agent, carcinogenesis-preventive agent, inhibitor of expression of Ki-Ras, ErbB2, c-Myc and Cycline D1, β-catenin-degrading agent, and p53 expression enhancer” (National University Corporation Tohoku University, priority 2005, dated 2012)
